From patent US9211310B2, “Use of a Chinese medicine composition in preparing medicaments for treating secondary prevention of myocardial infarction” (TASLY PHARMACEUTICAL GROUP CO., LTD, priority 2010, dated 2015)

Test system: patients after acute myocardial infarction
Assay: Life quality, Seattle Angina Questionnaire (SAQ), same clinical trial
Format: in vivo, human
Source text: 3508 patients who were in accordance with the diagnostic standards of AMI for 28 days to 2 years and differentiated as Qi deficiency and blood stagnation syndrome by TCM were studied. 0.5 g Chinese medicine composition prepared by the method of EXAMPLE 1 (Coded as QSYQ) was administrated half an hour after meal, 3 times per day.
There were 19 questions in the Seattle angina questionnaire (SAQ), including 5 parts: physical limitation (PL), anginal stability (AS), anginal frequency (AF), treatment satisfaction (TS) and disease perception (DP). After being given necessary explanation by doctors, the questions were answered independently by patients.
They included the overall survival time, angina pectoris score, TCM symptom score and life quality score, where angina pectoris score, TCM symptom score and life quality score were evaluated at randomization, in 1st, 3rd, 6th, 9th, 12th month after treatment and 18th month after follow-up.
All evaluation results of SAQ were described during the period of observation, and Wilcoxon rank sum test was used for inter-group comparison.
The evaluation results in the SAQ were depicted in different observations, and inter-group comparison was tested by Wilcoxon Rank-sum test.

CC(=O)Oc1ccccc1C(=O)O [Control group, aspirine]
SAQ 3rd question: ≧4 times per day, cases (3 months after treatment, PP): 6
SAQ Question 1-3: Mildly limited, number of patients (3 months after treatment, PP): 81
SAQ Question 1-3: Mildly limited, percent of patients (3 months after treatment, PP): (5.51%)
SAQ Question 1-3: Moderately limited, number of patients (3 months after treatment, PP): 16
SAQ Question 1-3: Moderately limited, percent of patients (3 months after treatment, PP): (1.09%)
SAQ Question 1-3: Not limited, number of patients (3 months after treatment, PP): 1103
SAQ Question 1-3: Not limited, percent of patients (3 months after treatment, PP): (75.03%)
SAQ Question 1-3: Other reason, number of patients (3 months after treatment, PP): 8
SAQ Question 1-3: Other reason, percent of patients (3 months after treatment, PP): (0.54%)
SAQ Question 1-3: Severely limited, number of patients (3 months after treatment, PP): 5
SAQ Question 1-3: Severely limited, percent of patients (3 months after treatment, PP): (0.34%)
SAQ Question 1-3: Slightly limited, number of patients (3 months after treatment, PP): 257
SAQ Question 1-3: Slightly limited, percent of patients (3 months after treatment, PP): (17.48%)
SAQ Question 1-4: Mildly limited, number of patients (3 months after treatment, PP): 278
SAQ Question 1-4: Mildly limited, percent of patients (3 months after treatment, PP): (18.95%)
SAQ Question 1-4: Moderately limited, number of patients (3 months after treatment, PP): 105
SAQ Question 1-4: Moderately limited, percent of patients (3 months after treatment, PP): (7.16%)
SAQ Question 1-4: Not limited, number of patients (3 months after treatment, PP): 559
SAQ Question 1-4: Not limited, percent of patients (3 months after treatment, PP): (38.10%)
SAQ Question 1-4: Other limited, number of patients (3 months after treatment, PP): 11
SAQ Question 1-4: Other limited, percent of patients (3 months after treatment, PP): (0.75%)
SAQ Question 1-4: Severely limited, number of patients (3 months after treatment, PP): 22
SAQ Question 1-4: Severely limited, percent of patients (3 months after treatment, PP): (1.50%)
SAQ Question 1-4: Slightly limited, number of patients (3 months after treatment, PP): 492
SAQ Question 1-4: Slightly limited, percent of patients (3 months after treatment, PP): (33.54%)
SAQ Question 1-5: Mildly limited, number of patients (3 months after treatment, PP): 268
SAQ Question 1-5: Mildly limited, percent of patients (3 months after treatment, PP): (18.27%)
SAQ Question 1-5: Moderately limited, number of patients (3 months after treatment, PP): 137
SAQ Question 1-5: Moderately limited, percent of patients (3 months after treatment, PP): (9.34%)
SAQ Question 1-5: Not limited, number of patients (3 months after treatment, PP): 594
SAQ Question 1-5: Not limited, percent of patients (3 months after treatment, PP): (40.49%)
SAQ Question 1-5: Other reasons, number of patients (3 months after treatment, PP): 11
SAQ Question 1-5: Other reasons, percent of patients (3 months after treatment, PP): (0.75%)
SAQ Question 1-5: Severely limited, number of patients (3 months after treatment, PP): 16
SAQ Question 1-5: Severely limited, percent of patients (3 months after treatment, PP): (1.09%)
SAQ Question 1-5: Slightly limited, number of patients (3 months after treatment, PP): 441
SAQ Question 1-5: Slightly limited, percent of patients (3 months after treatment, PP): (30.06%)
SAQ Question 1-9: Mildly limited, % of cases (3 months after treatment, PP): (18.45%)
SAQ Question 1-9: Mildly limited, cases (3 months after treatment, PP): 264
SAQ Question 1-9: Moderately limited, % of cases (3 months after treatment, PP): (20.48%)
SAQ Question 1-9: Moderately limited, cases (3 months after treatment, PP): 293
SAQ Question 1-9: Not limited, % of cases (3 months after treatment, PP): (3.70%)
SAQ Question 1-9: Not limited, cases (3 months after treatment, PP): 53
SAQ Question 1-9: Other reaons, % of cases (3 months after treatment, PP): (6.08%)
SAQ Question 1-9: Other reaons, cases (3 months after treatment, PP): 87
SAQ Question 1-9: Severely limited, % of cases (3 months after treatment, PP): (39.41%)
SAQ Question 1-9: Severely limited, cases (3 months after treatment, PP): 564
SAQ Question 1-9: Slightly limited, % of cases (3 months after treatment, PP): (11.88%)
SAQ Question 1-9: Slightly limited, cases (3 months after treatment, PP): 170
SAQ 2nd question: 6, % of cases (6 months after treatment, FAS): (0.00%)
SAQ 2nd question: 6, cases (6 months after treatment, FAS): 0
SAQ 2nd question: Clearly increased, % of cases (6 months after treatment, FAS): (0.98%)
SAQ 2nd question: Clearly increased, cases (6 months after treatment, FAS): 17
SAQ 2nd question: Clearly reduced, % of cases (6 months after treatment, FAS): (22.98%)
SAQ 2nd question: Clearly reduced, cases (6 months after treatment, FAS): 400
SAQ 2nd question: Same, % of cases (6 months after treatment, FAS): (37.33%)
SAQ 2nd question: Same, cases (6 months after treatment, FAS): 650
SAQ 2nd question: Slightly increased, % of cases (6 months after treatment, FAS): (3.68%)
SAQ 2nd question: Slightly increased, cases (6 months after treatment, FAS): 64
SAQ 2nd question: Slightly reduced, % of cases (6 months after treatment, FAS): (35.04%)
SAQ 2nd question: Slightly reduced, cases (6 months after treatment, FAS): 610
SAQ 3rd question: 1-2 times per week, % of cases (6 months after treatment, FAS): (35.04%)
SAQ 3rd question: 1-2 times per week, cases (6 months after treatment, FAS): 610
SAQ 3rd question: 1-3 times per day, % of cases (6 months after treatment, FAS): (3.68%)
SAQ 3rd question: 1-3 times per day, cases (6 months after treatment, FAS): 64
SAQ 3rd question: <1 time per week, % of cases (6 months after treatment, FAS): (22.98%)
SAQ 3rd question: <1 time per week, cases (6 months after treatment, FAS): 400
SAQ 3rd question: No onset, % of cases (6 months after treatment, FAS): (0.00%)
SAQ 3rd question: No onset, cases (6 months after treatment, FAS): 0
SAQ 3rd question: ≧3 times per week, % of cases (6 months after treatment, FAS): (37.33%)
SAQ 3rd question: ≧3 times per week, cases (6 months after treatment, FAS): 650
SAQ 3rd question: ≧4 times per day, % of cases (6 months after treatment, FAS): (0.98%)
SAQ 3rd question: ≧4 times per day, cases (6 months after treatment, FAS): 17
SAQ Question 1-3: Mildly limited, number of patients (6 months after treatment, FAS): 86
SAQ Question 1-3: Mildly limited, percent of patients (6 months after treatment, FAS): (4.93%)
SAQ Question 1-3: Moderately limited, number of patients (6 months after treatment, FAS): 20
SAQ Question 1-3: Moderately limited, percent of patients (6 months after treatment, FAS): (1.15%)
